These results are taken from ChEMBL document CHEMBL3352625, “Development of novel neurokinin 3 receptor (NK3R) selective agonists with resistance to proteolytic degradation” (J Med Chem, 2014).

Assay [1] addresses T1, Neuromedin-K receptor (Homo sapiens, UniProt P29371).
T1 sequence (P29371 whole entry): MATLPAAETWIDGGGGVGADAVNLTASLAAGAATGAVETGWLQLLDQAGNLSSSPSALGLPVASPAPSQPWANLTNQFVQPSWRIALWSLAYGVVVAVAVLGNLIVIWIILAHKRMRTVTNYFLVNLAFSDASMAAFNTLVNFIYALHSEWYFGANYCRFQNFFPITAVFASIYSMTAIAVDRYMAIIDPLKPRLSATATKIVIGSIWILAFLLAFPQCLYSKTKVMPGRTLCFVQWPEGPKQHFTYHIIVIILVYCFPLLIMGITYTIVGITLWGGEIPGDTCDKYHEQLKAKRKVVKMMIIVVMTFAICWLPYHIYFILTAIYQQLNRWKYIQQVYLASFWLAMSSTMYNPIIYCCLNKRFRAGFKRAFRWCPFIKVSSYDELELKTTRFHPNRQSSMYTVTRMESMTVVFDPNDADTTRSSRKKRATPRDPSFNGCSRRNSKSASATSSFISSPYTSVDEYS
Put plainly: (§1) Agonist activity at human NK3R expressed in CHO cells assessed as induction of Ca2+ influx […]. Type of assay: functional, cell-based.

The target in assay [2] is T1, Neuromedin-K receptor. Briefly: Agonist activity at human NK3R expressed in CHO cells assessed as potentiation of senktide-induced effect. It counts as cell-based.
Assay [3] deals with T1, Neuromedin-K receptor. Put plainly: Displacement of [125I]His3, MePhe7 from human NK3R expressed in CHO cell membranes by scintillation counting. Background: Loss of bound radioactivity is the signal in a displacement assay; it reports binding, not function.
Assay [4] concerns the target Substance-P receptor (Homo sapiens) (UniProt P25103). Briefly: Displacement of [125I]-BH-SP from human NK1R expressed in CHO cell membranes at 10 uM by scintillation counting.
The target of assay [5] is T2, Substance-K receptor (Homo sapiens) (UniProt P21452).
T2 sequence (whole entry): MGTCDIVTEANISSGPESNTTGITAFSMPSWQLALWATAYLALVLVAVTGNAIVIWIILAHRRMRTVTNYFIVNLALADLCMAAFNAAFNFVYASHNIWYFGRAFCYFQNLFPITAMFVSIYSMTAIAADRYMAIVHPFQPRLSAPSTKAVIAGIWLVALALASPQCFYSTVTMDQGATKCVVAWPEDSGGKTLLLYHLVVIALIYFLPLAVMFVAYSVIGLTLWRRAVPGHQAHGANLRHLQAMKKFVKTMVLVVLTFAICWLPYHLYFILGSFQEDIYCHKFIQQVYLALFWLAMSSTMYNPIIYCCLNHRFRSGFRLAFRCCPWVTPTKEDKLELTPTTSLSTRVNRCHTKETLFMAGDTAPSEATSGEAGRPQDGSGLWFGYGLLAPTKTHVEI
Put plainly: Displacement of [125I]-NKA from […] expressed in CHO cell membranes at 10 uM by scintillation counting.

Assay [6] can be described thus: Agonist activity at cattle NK3R. The arrangement: species or system Bos taurus.
Assay [7] is described as follows: Induction of GnRH release in ovariectomized goat assessed as induction of multiple-unit activity volley measured as duration of effect at 200 nmol, iv as single dose. It counts as functional, Capra hircus.
Assay [8] is described as follows: Agonist activity at goat NK3R. The arrangement: species or system Capra hircus.
In assay [9] the target is T3, Neuromedin-K receptor (Rattus norvegicus, UniProt P16177).
T3 sequence (P16177 whole entry): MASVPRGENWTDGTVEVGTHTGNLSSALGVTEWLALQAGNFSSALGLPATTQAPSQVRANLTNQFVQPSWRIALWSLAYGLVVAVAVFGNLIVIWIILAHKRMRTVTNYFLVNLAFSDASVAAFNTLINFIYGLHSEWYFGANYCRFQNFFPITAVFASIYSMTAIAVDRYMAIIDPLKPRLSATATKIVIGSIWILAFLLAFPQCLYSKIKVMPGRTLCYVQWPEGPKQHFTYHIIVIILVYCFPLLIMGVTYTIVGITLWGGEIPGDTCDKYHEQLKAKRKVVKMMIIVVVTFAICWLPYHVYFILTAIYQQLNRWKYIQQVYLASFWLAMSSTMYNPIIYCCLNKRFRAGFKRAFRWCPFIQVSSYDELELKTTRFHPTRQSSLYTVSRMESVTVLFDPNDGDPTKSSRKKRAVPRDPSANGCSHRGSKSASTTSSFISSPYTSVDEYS
Briefly: Agonist activity at rat NK3R.

The target of assay [10] is T4, Neuromedin-K receptor (Homo sapiens) (UniProt P29371).
T4 sequence (whole entry): T1 sequence (P29371 whole entry)
The description is as §1. Type of assay: functional, cell-based.

Calls of active or inactive are those of the source. No cut-off for these calls is given here. *1 amine or outer side, *2 acyl side, *3 side chain or, on linkers, in order; H or OH if unused. Where a SMILES comes first, the peptide text is derived from it. [ ]: non-standard residue; d: D form. Glyψ(E-CHCH)Leu = CC(C)C[C@H](/C=C/CN[*:1])C(=O)[*:2]; X4 = CC(C)C[C@H](N/C(CN[*:1])=N\O)C(=O)[*:2]; X3 = CC(C)C[C@H](NC(=N)CN[*:1])C(=O)[*:2]; X1 = CC(C)C[C@H](CCCN[*:1])C(=O)[*:2]; X2 = CC(C)C/C(=C\CCN[*:1])C(=O)[*:2]; NMeF = CN[C@@H](Cc1ccccc1)C(=O)O; Suc = O=C(CCC(=O)[*:2])[*:1] Some results are limits rather than exact numbers.

Substance-P receptor (Homo sapiens), sequence (P25103 whole entry): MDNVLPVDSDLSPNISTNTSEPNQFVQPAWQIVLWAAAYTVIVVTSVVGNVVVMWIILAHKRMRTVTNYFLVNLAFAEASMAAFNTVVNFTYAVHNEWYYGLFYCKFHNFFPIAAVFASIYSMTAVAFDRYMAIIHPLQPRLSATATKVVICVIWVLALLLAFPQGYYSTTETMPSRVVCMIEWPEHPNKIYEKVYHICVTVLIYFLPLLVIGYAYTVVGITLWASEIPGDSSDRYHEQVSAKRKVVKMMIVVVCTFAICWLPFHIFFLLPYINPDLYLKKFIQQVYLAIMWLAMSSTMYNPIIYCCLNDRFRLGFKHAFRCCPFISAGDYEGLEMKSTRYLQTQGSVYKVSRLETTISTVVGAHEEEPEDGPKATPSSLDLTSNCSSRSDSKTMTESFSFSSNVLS

For `CSCC[C@H](NC(=O)[C@H](CC(C)C)NC(=O)CNC(=O)[C@H](Cc1ccccc1)N(C)C(=O)[C@@H](N)Cc1ccccc1)C(=O)O` (H-F[NMeF]GLM-OH), on Neuromedin-K receptor [1], the concentration giving a half-maximal response (EC50) is over 100000 nM.
For `CSCC[C@H](NC(=O)[C@H](CC(C)C)N/C(CNC(=O)[C@H](Cc1ccccc1)N(C)C(=O)[C@H](Cc1ccccc1)NC(=O)[C@H](CC(=O)O)NC(=O)CCC(=O)O)=N\O)C(N)=O` (Suc-DF[NMeF][X4]M-NH2), on Neuromedin-K receptor [2], the EC50 came to 370 nM. Also, the IC50 on Neuromedin-K receptor [3] is 1100 nM.
With `CSCC[C@H](NC(=O)[C@H](CC(C)C)NC(=O)CNC(=O)[C@H](Cc1ccccc1)N(C)C(=O)[C@H](Cc1ccccc1)NC(=O)[C@H](Cc1ccccc1)NC(=O)[C@@H](N)CC(=O)O)C(N)=O` (H-DFF[NMeF]GLM-NH2), the EC50 at Neuromedin-K receptor [1] was found to be 91 nM. Besides, the inhibition in assay [4] was found to be 15%; in assay [5] it was 73%. The IC50 on Neuromedin-K receptor [3] came out at 59 nM.
For `CSCC[C@H](NC(=O)[C@H](CC(C)C)NC(=O)CNC(=O)[C@H](Cc1ccccc1)N(C)C(=O)[C@H](Cc1ccccc1)NC(=O)[C@H](Cc1ccccc1)NC(=O)[C@H](CC(=O)O)NC(=O)[C@H](Cc1cnc[nH]1)NC(=O)[C@@H](N)CCSC)C(N)=O` (H-MHDFF[NMeF]GLM-NH2) the same measures were 330 nM, 22%, 78% and 22 nM.
As for `CN(C(=O)[C@@H](N)Cc1ccccc1)[C@@H](Cc1ccccc1)C(=O)NCC(=O)O` (H-Phe-[NMeF]-Gly-OH), the EC50 at Neuromedin-K receptor [1] was over 100000 nM.
For `CSCC[C@H](NC(=O)[C@H](CC(C)C)NC(=O)CNC(=O)[C@H](Cc1ccccc1)N(C)C(=O)[C@@H](N)Cc1ccccc1)C(N)=O` (H-F[NMeF]GLM-NH2), the EC50 on Neuromedin-K receptor [1] is 350 nM. For the same molecule, the inhibition in assay [4] worked out at 70%; in assay [5], 77%. In addition, the IC50 at Neuromedin-K receptor [3] was found to be 2300 nM.
Take `CSCC[C@H](NC(=O)[C@@H](/C=C/CNC(=O)[C@H](Cc1ccccc1)N(C)C(=O)[C@H](Cc1ccccc1)NC(=O)[C@H](CC(=O)O)NC(=O)CCC(=O)O)CC(C)C)C(N)=O` (Suc-DF[NMeF][Glyψ(E-CHCH)Leu]M-NH2): the EC50 amounted to 360 nM in assay [6], 16 nM at Neuromedin-K receptor [2], 11 nM in [8] and 19 nM at Neuromedin-K receptor [9]. Besides, the Time in [7] amounted to 92.1 min. The IC50 at Neuromedin-K receptor [3] worked out at 56 nM.
On to `CSCC[C@H](NC(=O)[C@H](CC(C)C)NC(=O)CNC(=O)[C@H](Cc1ccccc1)N(C)C(=O)[C@H](Cc1ccccc1)NC(=O)[C@@H](N)Cc1ccccc1)C(N)=O` (H-FF[NMeF]GLM-NH2), for which the EC50 at Neuromedin-K receptor [1] turned out to be 240 nM. Also, the inhibition in assay [4] was 49%; in assay [5], 84%. Besides, the IC50 on Neuromedin-K receptor [3] is 2900 nM.
Consider `CSCC[C@H](NC(=O)/C(=C/CCNC(=O)[C@H](Cc1ccccc1)N(C)C(=O)[C@H](Cc1ccccc1)NC(=O)[C@H](CC(=O)O)NC(=O)CCC(=O)O)CC(C)C)C(N)=O` (Suc-DF[NMeF][X2]M-NH2), for which the EC50 on Neuromedin-K receptor [2] came to 1900 nM. The IC50 at Neuromedin-K receptor [3] turned out to be 13000 nM.
`CSCC[C@H](NC(=O)[C@H](CC(C)C)NC(=O)CNC(=O)[C@H](Cc1ccccc1)N(C)C(=O)[C@H](Cc1ccccc1)NC(=O)[C@H](Cc1ccccc1)NC(=O)[C@H](CC(=O)O)NC(=O)[C@@H](N)Cc1cnc[nH]1)C(N)=O` (H-HDFF[NMeF]GLM-NH2): the EC50 at Neuromedin-K receptor [1] is 280 nM. The results for the inhibition in assay [4] and in [5] were 18% and 74%, respectively. Besides, the IC50 on Neuromedin-K receptor [3] came out at 43 nM.
Turning to `CSCC[C@H](NC(=O)[C@@H](CCCNC(=O)[C@H](Cc1ccccc1)N(C)C(=O)[C@H](Cc1ccccc1)NC(=O)[C@H](CC(=O)O)NC(=O)CCC(=O)O)CC(C)C)C(N)=O` (Suc-DF[NMeF][X1]M-NH2), the EC50 on Neuromedin-K receptor [2] worked out at 920 nM. In addition, the IC50 at Neuromedin-K receptor [3] amounted to 19000 nM.
Turning to `CSCC[C@H](NC(=O)[C@@H](N)CC(C)C)C(N)=O` (H-Leu-Met-NH2), in assay [10], the outcome was inactive.
`CSCC[C@H](NC(=O)[C@H](CC(C)C)NC(=N)CNC(=O)[C@H](Cc1ccccc1)N(C)C(=O)[C@H](Cc1ccccc1)NC(=O)[C@H](CC(=O)O)NC(=O)CCC(=O)O)C(N)=O` (Suc-DF[NMeF][X3]M-NH2): the half-maximal effective concentration (EC50) on Neuromedin-K receptor [2] is 100 nM. At Neuromedin-K receptor [3], this molecule came in with an IC50 of 360 nM.
With `CN(C(=O)[C@H](Cc1ccccc1)NC(=O)[C@H](CC(=O)O)NC(=O)CCC(=O)O)[C@@H](Cc1ccccc1)C(=O)NCC(=O)O` (Suc-DF[NMeF]G-OH), the result in assay [10] was inactive.

As usually defined, the EC50 is the concentration needed to bring the measured effect to its halfway point. As usually defined, the IC50 is the concentration that gives 50% inhibition. Lower therefore signals inhibition by little substance. Usually inhibition stands for the drop in the measured response relative to a control, in per cent. High values mean a response far below the control, low ones a response near the control.
